Test results from US20260123631A1, “NATURAL PORPHIN SALT AND USE THEREOF AS PLANT GROWTH REGULATOR AND PLANT IMMUNITY INDUCER” (NANJING BOSTEC BIOLOGICAL ENGINEERING CO., LTD, priority 2022, published 2026).
Read-outs that look alike come from different tables or passages of the source.

Legend:
[1] = Water solubility of the prepared salts; format: physicochemical
[2] = Dilution and pH determination for sample solutions; format: physicochemical
Description: Method: 0.2500 g of a sample was accurately weighed and added to a 25 mL volumetric flask, dissolved with purified water, and diluted to a specified scale to prepare a 1.00% (10,000.0 ppm) initial solution. The initial solution was diluted with purified water in different ratios to prepare a series of solutions with a concentration of 1,000.0 ppm to 0.1 ppm. A pH value of each sample was determined three times.

[3] = Stability of sample solutions in the dark/under light; format: physicochemical
Description: Determination: An appropriate amount of a salt sample was taken, dissolved with water, and diluted to prepare a test solution with a concentration of about 10 ppm. An acidic reference substance (extremely-insoluble in water) was prepared with a 30% to 50% ethanol aqueous solution into a test solution with a concentration of about 10 ppm.
Each test solution was scanned by an ultraviolet spectrophotometer (at 0 h) for absorbance in a range of 200 nm to 800 nm immediately after being prepared. Then a test solution of each sample was divided into two parts. One part was placed at room temperature of 25° C. in the dark, and the other part was placed under light with a light intensity of 30,000 lux. At 1 h, 2 h, and 3 h, a solution sample was collected and scanned for absorbance respectively.
An absorbance value of a maximum absorption peak at 0 h (starting) of each test solution was set as a relative content of 100%, and a ratio of an absorbance value at each time point to the absorbance value at 0 h was calculated to determine a relative content, %.

[4] = target: chlorophyllase; assay: In vitro chlorophyllase-inhibiting activity test; format: biochemical, mung bean
Description: A chlorophyllase inhibition rate of a salt sample solution at each concentration was determined, and an IC50 value for a chlorophyllase inhibition activity of a salt sample was calculated.

[5] = system: wheat; assay: Germination of wheat and growth of seedlings; format: in vivo, wheat (Huaimai 35); conditions: for Root length / Root number / Root weight / Seedling height / Seedling weight: wheat seedlings
Description: Method: 3 replicates were set for each treatment. 50 full seeds with a consistent size were selected each time for each sample, disinfected with sodium hypochlorite for 5 min, rinsed with clear water, and placed in a plastic box filled with 100 g of a sand. 25 mL of a prepared sample solution was poured into the plastic box, and the seeds were arranged regularly. The plastic box was covered with a lid, and then incubated in a 25° C. incubator. The germination was determined when a length of a sprout of a wheat seed exceeded a half of a diameter (long axis) of the wheat seed (determination criterion). According to the growth of wheat, the germ exposure of seeds and the number of germinated seeds were recorded every day. On day 6, 10 wheat seedlings were randomly selected, and a root length, a plant height, and a root number were determined. On day 7, a root weight and an aboveground part weight were determined. All index data was produced based on 3 replicates.

[6] = under light 30,000 lux, 1 h, salts in water, acidic reference in 30% to 50% ethanol
[7] = under light 30,000 lux, 2 h, salts in water, acidic reference in 30% to 50% ethanol
[8] = under light 30,000 lux, 3 h, salts in water, acidic reference in 30% to 50% ethanol
[9] = substrate chlorophyll 120 ppm, sample 0.3 ppm to 30.0 ppm

**Q.** Which solubility in water [1] does the source give for `C=CC1=C(C)c2cc3[n-]c(cc4nc(cc5[n-]c(cc1n2)c(C)c5C=C)C(C)=C4CCC(=O)[O-])c(CCC(=O)[O-])c3C.[Cl-].[Fe+3].[Na+].[Na+]` [Example 11, sodium chlorhematin] here?
**A.** The solubility in water was “easily soluble”.

**Q.** What about the pH ([2]; 20 ppm solution in water (Comparative Test 2)) of the same molecule?
**A.** The pH was 7.5.

**Q.** What about the Relative content [3, 6] of the same molecule?
**A.** The Relative content was 74.11%.

**Q.** What about the Relative content [3, 7] of the same molecule?
**A.** The Relative content was 69.68%.

**Q.** What about the Relative content [3, 8] of the same molecule?
**A.** The Relative content was 67.73%.

**Q.** With “manganese iron chlorophyllin [Iron chlorophyllin Mn^2+]” as the molecule, how does the Relative content [3, 6] read?
**A.** Its Relative content is 70.13%.

**Q.** What about the Relative content [3, 7] of the same molecule?
**A.** The Relative content was 61.00%.

**Q.** And the Relative content [3, 8]?
**A.** The Relative content was 58.68%.

**Q.** And the “IC50 for chlorophyllase inhibition activity” value [4, 9]?
**A.** Its value is 5.55 ppm.

**Q.** Which “IC50 for chlorophyllase inhibition activity” value [4, 9] does the source give for “ammonium zinc chlorophyllin [Example 35]” here?
**A.** The value was 18.06 ppm.

**Q.** Which “IC50 for chlorophyllase inhibition activity” value [4, 9] does the source give for ammonium chlorin [Example 54] here?
**A.** The value was 6.05 ppm.

**Q.** Which “IC50 for chlorophyllase inhibition activity” value [4, 9] does the source give for “calcium copper chlorophyllin [Example 46]” here?
**A.** The value was 13.49 ppm.

**Q.** Which Relative content [3, 6] does the source give for magnesium chlorin [Example 55] here?
**A.** The Relative content was 43.47%.

**Q.** And the Relative content [3, 7]?
**A.** Its Relative content is 35.26%.

**Q.** And the Relative content [3, 8]?
**A.** Its Relative content is 30.41%.

**Q.** And the “IC50 for chlorophyllase inhibition activity” value [4, 9]?
**A.** The value was 6.22 ppm.

**Q.** For ammonium iron chlorin [Example 22], which “IC50 for chlorophyllase inhibition activity” value [4, 9] is on record?
**A.** Its value is 5.58 ppm.

**Q.** For potassium protoporphyrin [Example 1], which solubility in water [1] is on record?
**A.** Its solubility in water is “easily soluble”.

**Q.** What about the Relative content [3, 6] of the same molecule?
**A.** Its Relative content is 65.90%.

**Q.** And the Relative content [3, 7]?
**A.** Its Relative content is 56.97%.

**Q.** What about the Relative content [3, 8] of the same molecule?
**A.** The Relative content was 58.17%.

**Q.** What about the “Germination rate of wheat” value ([5]; 0.0025 ppm) of the same molecule?
**A.** Its value is 94.7%.

**Q.** What about the Root length ([5]; 0.0025 ppm) of the same molecule?
**A.** The Root length was 9.63 cm.

**Q.** What about the Root number ([5]; 0.0025 ppm) of the same molecule?
**A.** The Root number was 5.4.

**Q.** What about the Root weight ([5]; 0.0025 ppm) of the same molecule?
**A.** Its Root weight is 0.1230 g.

**Q.** And the Seedling height ([5]; 0.0025 ppm)?
**A.** Its Seedling height is 8.95 cm.

**Q.** What about the Seedling weight ([5]; 0.0025 ppm) of the same molecule?
**A.** Its Seedling weight is 0.241 g.

**Q.** What about the “Germination rate of wheat” value ([5]; 0.0250 ppm) of the same molecule?
**A.** The value was 95.3%.

**Q.** What about the Root length ([5]; 0.0250 ppm) of the same molecule?
**A.** Its Root length is 10.17 cm.

**Q.** And the Root number ([5]; 0.0250 ppm)?
**A.** Its Root number is 5.2.

**Q.** And the Root weight ([5]; 0.0250 ppm)?
**A.** The Root weight was 0.0976 g.

**Q.** And the Seedling height ([5]; 0.0250 ppm)?
**A.** The Seedling height was 9.48 cm.

**Q.** What about the Seedling weight ([5]; 0.0250 ppm) of the same molecule?
**A.** Its Seedling weight is 0.242 g.

**Q.** And the “Germination rate of wheat” value ([5]; 0.2500 ppm)?
**A.** The value was 90.7%.

**Q.** And the Root length ([5]; 0.2500 ppm)?
**A.** The Root length was 8.68 cm.

**Q.** And the Root number ([5]; 0.2500 ppm)?
**A.** Its Root number is 5.3.

**Q.** And the Root weight ([5]; 0.2500 ppm)?
**A.** Its Root weight is 0.1134 g.

**Q.** What about the Seedling height ([5]; 0.2500 ppm) of the same molecule?
**A.** Its Seedling height is 7.64 cm.

**Q.** And the Seedling weight ([5]; 0.2500 ppm)?
**A.** The Seedling weight was 0.228 g.

**Q.** Which results are given for “calcium iron chlorophyllin [Iron chlorophyllin Ca^2+]”?
**A.** Relative content [3, 6]: 81.00%; Relative content [3, 7]: 74.21%; Relative content [3, 8]: 63.35%; IC50 for chlorophyllase inhibition activity [4, 9]: 5.38 ppm

**Q.** Which “IC50 for chlorophyllase inhibition activity” value [4] does the source give for calcium zinc chlorophyllin [Example 37] here?
**A.** Its value is 17.78 ppm.

**Q.** Which “IC50 for chlorophyllase inhibition activity” value [4, 9] does the source give for calcium iron chlorin [Example 24] here?
**A.** The value was 5.11 ppm.

**Q.** With “zinc iron chlorophyllin [Iron chlorophyllin Zn^2+]” as the molecule, how does the Relative content [3, 6] read?
**A.** The Relative content was 69.34%.

**Q.** What about the Relative content [3, 7] of the same molecule?
**A.** Its Relative content is 63.04%.

**Q.** And the Relative content [3, 8]?
**A.** Its Relative content is 60.46%.

**Q.** What about the “IC50 for chlorophyllase inhibition activity” value [4, 9] of the same molecule?
**A.** Its value is 5.16 ppm.

**Q.** With “potassium zinc chlorophyllin [Zinc chlorophyllin K^+]” as the molecule, how does the Relative content [3, 6] read?
**A.** The Relative content was 52.48%.

**Q.** What about the Relative content [3, 7] of the same molecule?
**A.** The Relative content was 46.08%.

**Q.** And the Relative content [3, 8]?
**A.** Its Relative content is 41.51%.

**Q.** And the “IC50 for chlorophyllase inhibition activity” value [4, 9]?
**A.** The value was 15.55 ppm.

**Q.** For `C=CC1=C(C)c2cc3[n-]c(cc4nc(cc5[n-]c(cc1n2)c(C)c5C=C)C(C)=C4CCC(=O)[O-])c(CCC(=O)[O-])c3C.[Cl-].[Fe+3].[Mg+2]` [Example 13, magnesium chlorhematin], which solubility in water [1] is on record?
**A.** Its solubility in water is “soluble”.

**Q.** What about the pH ([2]; 0.1 ppm in purified water) of the same molecule?
**A.** The pH was “(6.92)”.

**Q.** What about the pH ([2]; 1.0 ppm in purified water) of the same molecule?
**A.** Its pH is “(7.27)”.

**Q.** What about the pH ([2]; 10.0 ppm in purified water) of the same molecule?
**A.** The pH was “(7.63)”.

**Q.** And the pH ([2]; 20.0 ppm in purified water)?
**A.** The pH was “(7.77)”.

**Q.** And the pH ([2]; 30.0 ppm in purified water)?
**A.** The pH was “(7.87)”.

**Q.** What about the pH ([2]; 100.0 ppm in purified water) of the same molecule?
**A.** The pH was “(8.01)”.

**Q.** What about the Relative content ([3]; in the dark, 25° C., 0 h) of the same molecule?
**A.** The Relative content was 100.00%.

**Q.** What about the Relative content ([3]; in the dark, 25° C., 1 h) of the same molecule?
**A.** Its Relative content is 100.10%.

**Q.** What about the Relative content ([3]; in the dark, 25° C., 2 h) of the same molecule?
**A.** The Relative content was 99.76%.

**Q.** And the Relative content ([3]; in the dark, 25° C., 3 h)?
**A.** The Relative content was 99.38%.

**Q.** And the Relative content ([3]; under light 30,000 lux, 0 h)?
**A.** The Relative content was 100.00%.

**Q.** What about the Relative content [3, 6] of the same molecule?
**A.** Its Relative content is 82.11%.

**Q.** What about the Relative content [3, 7] of the same molecule?
**A.** Its Relative content is 81.84%.

**Q.** And the Relative content [3, 8]?
**A.** The Relative content was 75.61%.

**Q.** With “ammonium iron chlorophyllin [Example 31]” as the molecule, how does the “IC50 for chlorophyllase inhibition activity” value [4, 9] read?
**A.** Its value is 5.43 ppm.

**Q.** Which “IC50 for chlorophyllase inhibition activity” value [4] does the source give for “manganese zinc chlorophyllin [Example 40]” here?
**A.** Its value is 18.10 ppm.

**Q.** Which “IC50 for chlorophyllase inhibition activity” value [4, 9] does the source give for calcium chlorin [Example 56] here?
**A.** The value was 6.43 ppm.

**Q.** With “ammonium copper chlorophyllin [Example 44]” as the molecule, how does the “IC50 for chlorophyllase inhibition activity” value [4] read?
**A.** Its value is 13.68 ppm.
